Test results reported in patent US20250312344A1, “COMBINATION THERAPIES USING PRMT5 INHIBITORS AND IMMUNE CHECKPOINT INHIBITORS FOR THE TREATMENT OF CANCER” (MIRATI THERAPEUTICS, INC., priority 2024, published 2025).

Tested on: murine syngeneic cancer model with a homozygous deletion of the Mtap gene (Mtap^DEL)
Test: MRTX1719 + immune checkpoint blockade combination study, tumor growth in Mtap^DEL syngeneic model
Format: in vivo, BALB/c mice
Method: Immune-competent female BALB/c mice were implanted with murine syngeneic cancer model with a homozygous deletion of the Mtap gene (Mtap^DEL). Mouse health was monitored daily, and caliper measurements began when tumors were palpable. Tumor volume measurements were determined utilizing the formula 0.5×L×W2 in which L refers to length and W refers to width of each tumor. When tumors reached approximately 80 mm^3, animals were randomized to receive A) vehicle (0.5% methylcellulose (4000 cps)/0.2% Tween80 in water) and isotype control antibodies), B) immune checkpoint blockade antibodies targeting mouse-Ctla-4 and mouse-Pd-1 and vehicle, C) a PRMT5 inhibitor and isotype control antibodies, or D) the PRMT5 inhibitor and immune checkpoint blockade antibodies targeting mouse-Ctla-4 and mouse-Pd-1. Tumor volumes were measured two or three times per week (n=10/treatment group). Tumor Growth Inhibition (% TGI) was calculated using the formula: (1−(Final Drug Treated Tumor Volume−Initial Drug Treated Tumor Volume)/(Final Vehicle Treated Tumor Volume−Initial Vehicle Treated Tumor Volume))*100.
This example was conducted according to the study procedure described above. The PRMT5 inhibitor was MRTX1719 administered at 100 mg/kg once a day (QD). MRTX1719 used is as described herein.
The immune checkpoint antibody targeting mouse-Ctla-4 was dosed on Day 0 while the antibody targeting mouse-Pd-1 was dosed on Day 0, 3 and 6.

Cn1ncc(-c2ccc3c(=O)[nH]nc(CN)c3c2)c1-c1c(F)c(Cl)cc(OC2CC2)c1C#N [MRTX1719]
Tumor volume (Study Day 1, MRTX1719 100 mg/kg QD, aCTLA-4 Day 0, aPD-1 Day 0, 3, 6): 115 mm^3
Tumor volume (Study Day 3, MRTX1719 100 mg/kg QD, aCTLA-4 Day 0, aPD-1 Day 0, 3, 6): 118 mm^3
Tumor volume (Study Day 6, MRTX1719 100 mg/kg QD, aCTLA-4 Day 0, aPD-1 Day 0, 3, 6): 154 mm^3
Tumor volume (Study Day 8, MRTX1719 100 mg/kg QD, aCTLA-4 Day 0, aPD-1 Day 0, 3, 6): 182 mm^3
Tumor volume (Study Day 10, MRTX1719 100 mg/kg QD, aCTLA-4 Day 0, aPD-1 Day 0, 3, 6): 233 mm^3
Tumor volume (Study Day 13, MRTX1719 100 mg/kg QD, aCTLA-4 Day 0, aPD-1 Day 0, 3, 6): 352 mm^3
Tumor volume (Study Day 15, MRTX1719 100 mg/kg QD, aCTLA-4 Day 0, aPD-1 Day 0, 3, 6): 558 mm^3
Tumor volume (Study Day 17, MRTX1719 100 mg/kg QD, aCTLA-4 Day 0, aPD-1 Day 0, 3, 6): 858 mm^3
Tumor volume (Study Day 20, MRTX1719 100 mg/kg QD, aCTLA-4 Day 0, aPD-1 Day 0, 3, 6): 1010 mm^3
Tumor volume (Study Day 22, MRTX1719 100 mg/kg QD, aCTLA-4 Day 0, aPD-1 Day 0, 3, 6): 1171 mm^3
Tumor volume (Study Day 24, MRTX1719 100 mg/kg QD, aCTLA-4 Day 0, aPD-1 Day 0, 3, 6): 1312 mm^3
Tumor volume (Study Day 27, MRTX1719 100 mg/kg QD, aCTLA-4 Day 0, aPD-1 Day 0, 3, 6): 1644 mm^3
Tumor volume (Study Day −1 (before dosing), n=10/group): 82 mm^3
% TGI (Day 17) (Tumor Growth Inhibition vs vehicle, Day 17, MRTX1719 100 mg/kg QD, aCTLA-4 Day 0, aPD-1 Day 0, 3, 6): 43.5%
